Assays:
Assay type in all cases: cell-based
[1] = target: human adenosine A3 receptor (Homo sapiens (Human), UniProt P0DMS8); assay: FLIPR calcium flux functional assay, A3 receptor; details: for Kb: mammalian cell line expressing human A3, calcium flux; for A3/A2b: selectivity ratio of Kb values
Protocol: (§1) The use of a Fluorometric Imaging Plate Reader (FLIPR) to measure calcium flux in Adenosine-receptor expressing cells is a well-established technique. In this assay calcium flux is triggered by receptor activation and measured through the fluorescence of an incorporated calcium-sensitive dye. The potencies shown were determined using expressed human adenosine A2B receptors in mammalian cell lines. Selectivity values were obtained by using mammalian cell lines expressing the human adenosine A1, A2A and A3 receptors. Compound potency was determined from dose response curves and is reported as an IC50 value.
(§2) All examples were tested for activity in the functional assay described above.

[2] = target: human adenosine A2A receptor (Homo sapiens (Human), UniProt P29274); assay: FLIPR calcium flux functional assay, A2A receptor; details: for Kb: mammalian cell line expressing human A2A, calcium flux; for A2a/A2b: selectivity ratio of Kb values
Protocol: as §1, §2

[3] = target: human adenosine A1 receptor (Homo sapiens (Human), UniProt P30542); assay: FLIPR calcium flux functional assay, A1 receptor; details: for Kb: mammalian cell line expressing human A1, calcium flux; for A1/A2b: selectivity ratio of Kb values
Protocol: as §1, §2

[4] = target: human adenosine A2B receptors (Homo sapiens (Human), UniProt P29275); assay: FLIPR calcium flux functional assay, A2B receptor; details: mammalian cell line expressing human A2B
Protocol: as §1, §2

Chain of human adenosine A3 receptor (P0DMS8 whole entry): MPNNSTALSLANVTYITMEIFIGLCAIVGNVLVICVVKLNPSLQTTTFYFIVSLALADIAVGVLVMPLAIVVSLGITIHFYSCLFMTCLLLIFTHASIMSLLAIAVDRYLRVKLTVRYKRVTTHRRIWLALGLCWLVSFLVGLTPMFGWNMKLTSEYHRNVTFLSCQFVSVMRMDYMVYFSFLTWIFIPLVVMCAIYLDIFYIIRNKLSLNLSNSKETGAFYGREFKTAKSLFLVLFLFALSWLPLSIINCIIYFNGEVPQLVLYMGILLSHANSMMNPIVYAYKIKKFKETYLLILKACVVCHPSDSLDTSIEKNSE
Chain of human adenosine A1 receptor (P30542 whole entry): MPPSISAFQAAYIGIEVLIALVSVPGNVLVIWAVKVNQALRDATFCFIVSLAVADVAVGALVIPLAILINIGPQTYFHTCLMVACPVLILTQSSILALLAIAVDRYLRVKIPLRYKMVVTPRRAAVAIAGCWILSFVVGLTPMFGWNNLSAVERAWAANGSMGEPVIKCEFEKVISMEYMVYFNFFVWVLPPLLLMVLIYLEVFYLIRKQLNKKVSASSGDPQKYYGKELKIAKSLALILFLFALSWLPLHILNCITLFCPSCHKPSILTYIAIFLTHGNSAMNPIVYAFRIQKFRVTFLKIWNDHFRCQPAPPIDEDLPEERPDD
Chain of human adenosine A2B receptors (P29275 whole entry): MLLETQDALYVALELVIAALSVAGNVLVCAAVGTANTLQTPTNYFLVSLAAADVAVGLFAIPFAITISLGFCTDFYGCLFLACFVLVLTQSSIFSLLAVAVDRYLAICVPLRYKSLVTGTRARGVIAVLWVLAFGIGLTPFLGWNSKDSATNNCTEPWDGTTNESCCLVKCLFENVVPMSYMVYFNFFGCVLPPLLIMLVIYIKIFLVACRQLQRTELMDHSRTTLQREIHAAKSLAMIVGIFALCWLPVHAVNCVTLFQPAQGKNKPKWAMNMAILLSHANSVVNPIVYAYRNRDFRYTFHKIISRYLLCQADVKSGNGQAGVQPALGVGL
Chain of human adenosine A2A receptor (P29274 whole entry): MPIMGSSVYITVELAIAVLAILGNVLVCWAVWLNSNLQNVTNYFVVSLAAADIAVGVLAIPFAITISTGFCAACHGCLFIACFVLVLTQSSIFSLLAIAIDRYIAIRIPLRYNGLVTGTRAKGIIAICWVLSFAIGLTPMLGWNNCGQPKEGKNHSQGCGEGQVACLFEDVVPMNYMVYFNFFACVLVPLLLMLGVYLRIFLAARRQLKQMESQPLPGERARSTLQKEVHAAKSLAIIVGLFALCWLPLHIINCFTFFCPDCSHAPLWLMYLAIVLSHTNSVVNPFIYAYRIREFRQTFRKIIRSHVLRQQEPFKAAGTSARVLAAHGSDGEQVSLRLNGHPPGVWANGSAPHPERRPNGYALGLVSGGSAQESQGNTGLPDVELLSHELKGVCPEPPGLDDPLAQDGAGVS

| Kb [1] [nM] | A3/A2b [1] | Kb [2] [nM] | A2a/A2b [2] | Kb [3] [nM] | A1/A2b [3] | Kb [4] [nM] | SMILES |
| --- | --- | --- | --- | --- | --- | --- | --- |
| 22.9 | 16 | 277 | 198 | 57.6 | 41 | 1.4 | CNc1cc2nc(NCc3cccnc3)nc(C(=O)c3cccs3)c2s1 [Example 6, {6-Methylamino-2-[(pyridin-3-ylmethyl)-amino]-thieno[3,2-d]pyrimidin-4-yl}-thiophen-2-yl-methanone] |
| 130 | 20 | 318 | 49 | 19.4 | 3 | 6.5 | CN(C)c1cc2nc(NCc3cccnc3)nc(C(=O)c3cccs3)c2s1 [Example 7, {6-dimethylamino-2-[(pyridine-3-ylmethyl)-amino]-thieno[3,2-d]pyrimidin-4-yl}-thiophen-2-yl-methanone] |
| 37.3 | 6 | 726 | 109 | 118 | 18 | 6.7 | CCNc1cc2nc(NCc3cccnc3)nc(C(=O)c3cccs3)c2s1 [Example 8, {6-Ethylamino-2-[(pyridin-3-ylmethyl)-amino]-thieno[3,2-d]pyrimidin-4-yl}-thiophen-2-yl-methanone] |
| 233 | 33 | 1400 | >196 | 1100 | 155 | 7.1 | Nc1cc2nc(NCc3cccnc3)nc(C(=O)c3cccs3)c2s1 [Example 9, {6-Amino-2-[(pyridin-3-ylmethyl)-amino]-thieno[3,2-d]pyrimidin-4-yl}-thiophen-2-yl-methanone] |
| 747 | 14 | 3750 | >71 | 161 | 3 | 52.3 | C=Cc1cc2nc(NCc3cccnc3)nc(C(=O)c3cccs3)c2s1 [Example 10, {2-[(Pyridin-3-ylmethyl)-amino]-6-vinyl-thieno[3,2-d]pyrimidin-4-yl}-thiophen-2-yl-methanone] |
| 361 | 10 | 3750 | >102 | 216 | 6 | 36.7 | CCc1cc2nc(NCc3cccnc3)nc(C(=O)c3cccs3)c2s1 [Example 11, {6-Ethyl-2-[(pyridin-3-ylmethyl)-amino]-thieno[3,2-d]pyrimidin-4-yl}-thiophen-2-yl-methanone] |
| 308 | 4 | 828 | 12 | 256 | 4 | 68.9 | O=C(c1cccs1)c1nc(NCc2cccnc2)nc2cc(NCc3cccnc3)sc12 [Example 12, {6-(3-picolylamino)-2-[(pyridin-3-ylmethyl)-amino]-thieno[3,2-d]pyrimidin-4-yl}-thiophen-2-yl-methanone] |

From patent US9120807B2, “Thienopyrimidine compounds” (Vernalis (R&D) Ltd., priority 2007, dated 2015)
